Reference: US20260028390A1, “ALPHA1-ANTITRYPSIN FOR USE IN THE TREATMENT OF DISEASES OR DISORDERS OF THE NERVOUS SYSTEM SUCH AS CHRONIC INFLAMMATORY DEMYELINATING POLYNEUROPATHY” (Ageronix SA, priority 2022, published 2026)

Tested on: HMC3-MHCII^Luc cells
Assay: RNAseq differential gene expression / GSEA in AAT-treated resting and IFNγ-activated microglia
Type: cell-based, human
Protocol: • A) Human microglial HMC3-MHCII^Luc cells were plated at day 0, presented IFNγ at day 1 until day 2 and measurement of the luciferase activity and cell viability were done at day 4. • B) AATs were applied from day 0 to day 4 on HMC3-MHCII^Luc cells. Activation was measured by the activity of MHCII-driven luciferase and represented as percentage of IFNγ control for all conditions. All conditions were performed in triplicates, error bars represent standard deviation. • C) Bulk RNA extraction was performed on the same HMC3-MHCII^Luc cultures. Quality control (QC) were applied to RNA before sequencing. QC of the sequencing was done prior to mapping on the human genome. Mapped reads were counted, and differential gene expression was measured between the conditions (see Table 1-10). (FIGS. 3A, 3B and 3C)
RNAseq data from plasma-derived and recombinant AATs were pooled, normalized and analyzed through Gene Set Enrichment Analysis (GSEA) (https://www.gsea-msigdb.org/gsea/index.jsp; Subramanian, A., et al. Proc. Natl. Acad. Sci. USA, 102 (43): 15545-15550, 2005.). […] Importantly, both the IFNγ and inflammatory responses were dampened by AAT. However, the downregulation of the inflammatory response genes in (C) was just under significance.
Tables of genes related to antigen presentation (Table 1), cytokine signaling (Table 2), interferon signaling (Table 3) and complement activation (Table 4). Inflammatory top gene (FC>2; p-value<0.05; left column), were defined by differential expression between untreated and IFNγ-treated cells (inflammation; middle column).
HMC3-MHCII^Luc and HMC3-MHCII^Luc; Ubi^AAT (endogenous AAT) cell lines were seeded into 96-well plates at a density of approximately 2500 cells/well. HMC3-MHCII^Luc cell line was plated and was added plasma-derived AAT and recombinant AATs (produced in CHO cells, AAT 1 and AAT 2) 3h later and at ranged concentration (1; 10 or 25 μM). 24h after, still in the presence of exogenous or endogenous AAT, microglial activation was induced with a 24h-long IFNγ presentation (10 ng/ml). IFNγ was then removed and both HMC3-MHCII^Luc and HMC3-MHCII^Luc; Ubi^AAT cells were cultured for 48h in exogenous or endogenous presence of AAT before cell cultures were beeing assessed for cell viability and activation (See FIGS. 3A, 3B, 3C and 4A,4B, 4C).
RNA samples from plasma-derived AAT and recombinant AAT Nr. 2 were checked for quality (2100 Bioanalyzer, Agilent) and libraries prepared with Truseq RNA Library Kit (Illumina, RS-122-2001). Libraries were sequenced (HiSeq 4000, Illumina) controlled for the quality of sequencing (FastQC), mapped on the human genome (STAR v.2.7.0f; UCSC hg38), reads were counted (HTSeq v0.9.1) and the differential expression analysis was performed with the R/Bioconductor package (edgeR 1.30.1.).

[1] = AAT (left block), GBS risk gene
[2] = AAT, resting microglia, AD risk gene
[3] = AAT, resting microglia, MCT*/PN risk gene
[4] = AAT, resting microglia, MS risk gene
[5] = AAT, resting microglia, PD risk gene
[6] = FC AAT, resting microglia, M2 gene

alpha1-antitrypsin (AAT) protein
CDC42 expression FC AAT [1]: −1.35
FOS expression FC AAT [1]: −2.31
GLRX5 expression FC AAT [1]: 1.12
GUK1 expression FC AAT [1]: 1.57
HAGH expression FC AAT [1]: 1.40
HMGB2 expression FC AAT [1]: −1.20
MARCKS expression FC AAT [1]: −2.06
PKN2 expression FC AAT [1]: −1.47
SENP6 expression FC AAT [1]: −1.47
SMCHD1 expression FC AAT [1]: −1.39
ZNF12 expression FC AAT [1]: −1.26
IFNγ and inflammatory responses (GSEA gene families) (AAT treatment in absence or presence of IFNγ, pooled plasma-derived and recombinant AAT RNAseq data): dampened
ABCA7 expression FC [2]: 1.75
APOE expression FC [2]: 1.74
BIN1 expression FC [2]: 1.33
CD2AP expression FC [2]: −1.39
CLU expression FC [2]: −1.30
PICALM expression FC [2]: −1.48
PSEN2 expression FC [2]: 1.45
TREM2 expression FC [2]: 2.22
ARHGEF10 expression FC [3]: 1.19
CCT5 expression FC [3]: −1.17
DNAJB2* expression FC [3]: 1.39
DST expression FC [3]: −1.35
DYNC1H1* expression FC [3]: −1.40
FIG4* expression FC [3]: −1.42
GAN* expression FC [3]: −1.21
GARS* expression FC [3]: −1.21
GDAP1* expression FC [3]: −1.54
GNB4* expression FC [3]: −1.56
HSPB1* expression FC [3]: 1.67
IFRD1 expression FC [3]: 1.23
IGHMBP2* expression FC [3]: 1.39
KIF1A expression FC [3]: 2.76
KIF1B* expression FC [3]: −1.21
LRSAM1* expression FC [3]: 1.36
MTMR2* expression FC [3]: −1.36
PLEKHG5* expression FC [3]: 1.49
SBF2 expression FC [3]: −1.20
SCN9A expression FC [3]: −1.50
SCN11A expression FC [3]: 4.49
SETX expression FC [3]: −1.23
SPTLC1 expression FC [3]: −1.23
TFG* expression FC [3]: −1.28
TRIM2* expression FC [3]: −1.39
TRPV4* expression FC [3]: 1.92
WNK1 expression FC [3]: −1.14
AGAP2 expression FC [4]: 1.30
AHI1 expression FC [4]: −1.46
CBLB expression FC [4]: −1.24
CD40 expression FC [4]: 1.17
CD58 expression FC [4]: −1.61
CDC37 expression FC [4]: 1.26
CYP24A1 expression FC [4]: 2.55
EXTL2 expression FC [4]: −1.76
HLA-A expression FC [4]: 1.48
HLA-DRB1 expression FC [4]: −1.47
METTL1 expression FC [4]: 1.22
MPV17L2 expression FC [4]: 1.31
PTGER4 expression FC [4]: −1.29
PTPRK expression FC [4]: −1.38
RPS6KB1 expression FC [4]: −1.23
SLC30A7 expression FC [4]: −1.77
ATP13A2 expression FC [5]: 1.42
DNAJC6 expression FC [5]: −1.14
DNAJC13 expression FC [5]: −1.37
GIGYF2 expression FC [5]: −1.16
LRP10 expression FC [5]: 1.29
LRRK2 expression FC [5]: −3.98
PLA2G6 expression FC [5]: 1.55
SYNJ1 expression FC [5]: −1.33
TMEM230 expression FC [5]: −1.42
VPS13C expression FC [5]: −1.41
VPS35 expression FC [5]: −1.42
ACAN expression FC [6]: 1.37
AP2A2 expression FC [6]: 1.26
APLP1 expression FC [6]: 1.41
APRT expression FC [6]: 1.16
BAIAP2 expression FC [6]: 1.45
C16orf45 expression FC [6]: 1.31
CHPF expression FC [6]: 1.80
COL1A1 expression FC [6]: 1.58
COL11A1 expression FC [6]: 1.14
DBN1 expression FC [6]: 1.42
ENG expression FC [6]: 1.29
EXTL1 expression FC [6]: 2.19
FEZ1 expression FC [6]: 1.45
FGD3 expression FC [6]: 1.76
FOXC1 expression FC [6]: 1.26
FZD2 expression FC [6]: 1.39
FZD7 expression FC [6]: 1.24
GADD45GIP1 expression FC [6]: 1.55
GREM1 expression FC [6]: 1.69
GUK1 expression FC [6]: 1.57
HSPG2 expression FC [6]: 1.58
IGFBP2 expression FC [6]: 1.63
ITGA11 expression FC [6]: 1.65
MARCH4 expression FC [6]: 1.28
MBOAT7 expression FC [6]: 1.44
METRN expression FC [6]: 2.23
MIF expression FC [6]: 1.83
MMP1 expression FC [6]: 2.51
MOSPD3 expression FC [6]: 1.51
MXRA8 expression FC [6]: 1.40
NID1 expression FC [6]: 1.16
NTN4 expression FC [6]: 1.25
PAPPA expression FC [6]: 1.24
PLEC expression FC [6]: 1.69
PLTP expression FC [6]: 1.28
PREX1 expression FC [6]: 1.25
PRSS36 expression FC [6]: 1.58
PTPRS expression FC [6]: 1.27
RAB3IL1 expression FC [6]: 1.55
RASA4B expression FC [6]: 1.46
RASAL1 expression FC [6]: 1.52
SART1 expression FC [6]: 1.44
SEMA3B expression FC [6]: 1.50
SERPINH1 expression FC [6]: 1.21
SLC22A5 expression FC [6]: 1.22
STC2 expression FC [6]: 1.42
TAGLN expression FC [6]: 1.37
TBCD expression FC [6]: 1.26
TEKT4P2 expression FC [6]: 2.46
TGFB1I1 expression FC [6]: 1.31
TNFRSF1B expression FC [6]: 1.46
TTC9 expression FC [6]: 1.65
ZIC2 expression FC [6]: 2.42
AHNAK2 expression FC (FC inflammation + AAT, M2 gene): 1.40
ANPEP expression FC (FC inflammation + AAT, M2 gene): 1.25
ARHGDIB expression FC (FC inflammation + AAT, M2 gene): 1.28
BAIAP2 expression FC (FC inflammation + AAT, M2 gene): 1.24
BGN expression FC (FC inflammation + AAT, M2 gene): 1.27
CHPF expression FC (FC inflammation + AAT, M2 gene): 1.58
CLIP3 expression FC (FC inflammation + AAT, M2 gene): 1.25
CLMP expression FC (FC inflammation + AAT, M2 gene): 1.22
COL11A1 expression FC (FC inflammation + AAT, M2 gene): 1.16
DBN1 expression FC (FC inflammation + AAT, M2 gene): 1.31
ENG expression FC (FC inflammation + AAT, M2 gene): 1.35
EXTL1 expression FC (FC inflammation + AAT, M2 gene): 1.78
FADS2 expression FC (FC inflammation + AAT, M2 gene): 1.20
FAT1 expression FC (FC inflammation + AAT, M2 gene): 1.34
FEZ1 expression FC (FC inflammation + AAT, M2 gene): 1.34
FGD3 expression FC (FC inflammation + AAT, M2 gene): 2.31
FZD2 expression FC (FC inflammation + AAT, M2 gene): 1.37
FZD7 expression FC (FC inflammation + AAT, M2 gene): 1.36
GADD45GIP1 expression FC (FC inflammation + AAT, M2 gene): 1.51
GATA6 expression FC (FC inflammation + AAT, M2 gene): 1.47
GREM1 expression FC (FC inflammation + AAT, M2 gene): 1.56
GUK1 expression FC (FC inflammation + AAT, M2 gene): 1.31
HCK expression FC (FC inflammation + AAT, M2 gene): 1.44
HLA-DRB5 expression FC (FC inflammation + AAT, M2 gene): 2.09
HSPG2 expression FC (FC inflammation + AAT, M2 gene): 1.41
